From patent US7405211B2, “Therapeutic morpholino-substituted compounds” (AstraZeneca AB, priority 2000, dated 2008)

Legend:
[1] = system: PI 3-kinase immunoprecipitated from human platelets; assay: In vitro PI 3-kinase assay (32P incorporation into PI); assay type: biochemical; conditions: PI 3-kinase from human platelets, PI substrate
Description: The effect of TGX-25, TGX-33, TGX-37, TGX-40, TGX-41, TGX-57, TGX-84, TGX-90, TGX-93, TGX-98, TGX-99, TGX-101, TGX-106, TGX-107, TGX-108, TGX-109, TGX-111, TGX-112, TGX-113, TGX-115, TGX-120, TGX-121, TGX-123, TGX-124, TGX-126, TGX-127, TGX-130 or TGX-131on PI 3-kinase activity was determined using an in vitro PI 3-kinase assay. This assay was performed using PI 3-kinase immunoprecipitated from human platelets as the enzyme and PI as the substrate. The PI 3-kinase activity was quantitated by measuring the enzymatic incorporation of [^32P] into PI, forming PI([^32P]-3)P, as previously described (Susa et al., 1992, The Journal of Biological Chemistry 267(32):22951-22956.
Washed human platelets were lysed in Triton X-100 lysis buffer (10 mM Tris, pH 7.4, 1% Triton X-100, 2 mM EDTA, 1 mM PMSF) for 30 minutes. The Triton X-100 insoluble fraction was removed by centrifugation of the cell lysates at 15,000 g for 10 minutes. PI 3-kinase was immunoprecipitated by mixing 500 μg of the cell lysate with 1 μg of a rabbit anti-rat antibody against the p85/110 form of PI 3-kinase and 30 μl of 50% Protein A-sepharose beads for 2 hours at 4° C. The Protein A-sepharose-bound PI 3-kinase was isolated by pelleting the beads at 15,000 g for 5 seconds, and washing three times with ice-old Triton X-100 lysis buffer followed by four washes with PI 3-kinase assay buffer (20 mM HEPES, pH 7.4, 1 mM EGTA, 5 mM MgCl2).
PI stored in CHCl3 was dried under N2, resuspended in the lipid buffer (50 mM HEPES, pH 7.2, 1 mM EDTA) at a final concentration of 330 μg/ml, and sonicated for 6 minutes on ice. PI([^32P]-3)P was generated by mixing the immunoprecipitated PI 3-kinase for 20 minutes with 40 μl of the PI, 10 μl of ATP (1 mM) and ^32P-r-ATP (0.5 μCi, 1 μCi/nmol), 10 μl of 10× kinase buffer, in a final assay volume of 100 μl adjusted with H2O. TGX-25, TGX-33, TGX-37, TGX-40, TGX-41, TGX-57, TGX-84, TGX-90, TGX-93, TGX-98, TGX-99, TGX-101, TGX-106, TGX-107, TGX-108, TGX-109, TGX-111, TGX-112, TGX-113, TGX-115, TGX-120, TGX-121, TGX-123, TGX-124, TGX-126, TGX-127, TGX-130 or TGX-131 was preincubated with the PI 3-kinase for 5 minutes prior to the addition of ATP. The assay was terminated with 100 μl of 1 N HCl, and the PI([^32P]-3)P product extracted with 200 μl chloroform:methanol (1:1) and 500 μl 2 M KCl. The PI([^32P]-3)P in the chloroform phase was resolved by thin layer chromatography using a solvent system containing CHCl3:MeOH:HAC:H2O (43:38:5:7) (v:v:v:v), and visualized by autoradiography. The PI([^32P]-3)P spots were then scraped off from the TLC plates, deacylated with 1 ml methylamine:butanol:methanol (42:9:47) (v:v:v) for 4 hours at 53° C., and quantitated using a liquid scintillation counter (LKB 1209 RackBETA).

[2] = system: K562 (leukaemia derived) and U937 (moncytic) cell lines; assay: Cell proliferation assay; assay type: cell-based; conditions: 20 μM, 4 day incubation
Description: The anti-proliferative activity of the compounds of this invention from all three chemical classes was determined using K562 (leukaemia derived) and U937 (moncytic) cell lines. The cytotoxic activity of the compounds was monitored over four days by counting cell number and determining cell viability using a colourimetric assay metabolic activity.

PI3K α/β isoforms = assay: In vitro enzyme assay PI3K α/β; assay type: biochemical; conditions: immunoprecipitated from platelet lysate
Description: (§1) In vitro enzyme assays were conducted as a primary screen to determine drug candidate isoform affinity and specificity.
(§2) The α and β isoforms of the PI3K were immunoprecipitated from a platelet lysate using an antibody that recognised the p85 regulatory subunit common to both forms of the enzyme. The γ isoform was produced as a recombinant protein in the Thrombogenix laboratories. […] Standard phosphorylation assays using phosphatidylinositol and ^32P were used to measure the enzyme activity in the immunoprecipates in the presence or absence of an inhibitor. Enzyme activity was determined over a range of inhibitor concentrations to establish an IC50 value.

PI3K γ = molecular target: T1, PI3K γ (Homo sapiens, UniProt P48736); assay: In vitro enzyme assay PI3K γ (recombinant); assay type: biochemical; conditions: recombinant γ isoform
T1 construct: made in house
T1 sequence (P48736 whole entry, species assumed, canonical isoform): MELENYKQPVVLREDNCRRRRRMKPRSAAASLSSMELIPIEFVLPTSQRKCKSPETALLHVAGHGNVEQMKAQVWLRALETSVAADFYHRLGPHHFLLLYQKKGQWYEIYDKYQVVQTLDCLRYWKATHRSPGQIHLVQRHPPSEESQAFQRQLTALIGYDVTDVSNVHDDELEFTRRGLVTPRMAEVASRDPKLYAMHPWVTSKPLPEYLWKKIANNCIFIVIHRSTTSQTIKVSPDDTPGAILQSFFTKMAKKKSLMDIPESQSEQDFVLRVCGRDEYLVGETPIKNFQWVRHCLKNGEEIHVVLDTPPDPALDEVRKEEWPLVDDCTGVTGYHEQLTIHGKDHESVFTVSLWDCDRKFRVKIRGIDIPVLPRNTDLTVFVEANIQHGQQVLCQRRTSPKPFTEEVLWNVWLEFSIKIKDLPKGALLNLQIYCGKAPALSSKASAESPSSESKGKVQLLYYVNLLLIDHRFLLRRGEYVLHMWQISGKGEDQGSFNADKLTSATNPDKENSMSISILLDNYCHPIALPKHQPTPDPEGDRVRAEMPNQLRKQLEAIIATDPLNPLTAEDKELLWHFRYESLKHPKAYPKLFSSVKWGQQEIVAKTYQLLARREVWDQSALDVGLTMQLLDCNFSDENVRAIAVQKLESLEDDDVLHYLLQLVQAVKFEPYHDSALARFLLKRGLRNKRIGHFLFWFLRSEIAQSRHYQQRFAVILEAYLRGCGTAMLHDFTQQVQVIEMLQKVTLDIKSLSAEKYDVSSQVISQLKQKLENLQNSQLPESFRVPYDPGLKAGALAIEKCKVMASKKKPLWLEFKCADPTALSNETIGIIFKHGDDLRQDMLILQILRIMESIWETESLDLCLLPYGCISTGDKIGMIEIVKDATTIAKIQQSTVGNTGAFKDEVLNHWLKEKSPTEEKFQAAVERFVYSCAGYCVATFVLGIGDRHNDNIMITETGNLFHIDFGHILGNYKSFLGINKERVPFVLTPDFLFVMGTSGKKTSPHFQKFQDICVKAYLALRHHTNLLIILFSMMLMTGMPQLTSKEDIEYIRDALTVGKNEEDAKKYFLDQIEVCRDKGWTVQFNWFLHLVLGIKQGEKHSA
Description: as §1, §2

platelets = assay: Flow-based reconstitution assay: platelet adhesion to vWf-coated glass microslides; assay type: cell-based; conditions: 30 min pretreatment, shear rate 1800 s^−1
Description: The effect of TGX-40 on platelet adhesion was examined using a flow-based adhesion assay. Washed platelets were pretreated with 10, 25, or 50 μM TGX-40, or control buffer (0.1% DMSO) for 30 minutes at 37° C. prior to reconstitution with red blood cells to a hematocrit of 50%. The platelets and reconstituted red blood cells were perfused through vWf-coated glass microslides for 1 minute at a shear rate of 1800 s^−1. Non-adherent cells were removed by washing for 10 minutes at 1800 s^−1 and the number of adherent platelet were quantitated and expressed as the mean±SEM. As illustrated graphically in FIG. 1, TGX40 inhibited the ability of platelets to adhere in a dose-dependent manner, showing a decrease of 51, 67 and 86% in platelet adhesion when platelets were pretreated with 10, 25, and 50 μM TGX-40.

[3] = system: platelet thrombus formation; assay: Whole-blood flow assay: platelet thrombus formation on vWf matrix (platelet LDH); assay type: cell-based; conditions: shear rate 1800 s^−1
Description: The inhibitory effect of TGX-40 on platelet thrombus formation was examined using a whole-blood flow assay, since thrombi formed by washed platelets are small and poorly reproducible. Anticoagulated whole blood was incubated with 50, 100, or 200 μM TGX-40, or control buffer (0.1% DMSO) for 30 minutes with gentle rocking prior to perfusion through vWf-coated glass microslides for 2 minutes at a shear rate of 1800 s^−1. Non-adherent platelets were removed by washing for 10 minutes at 1800 s^−1, and adherent erythrocytes were lysed with 1% ammonium oxalate. The level of thrombus formation was quantitated indirectly by measuring platelet LDH (U/L) levels in the whole cell lysates by spectrophotometry. Following a 2-minute perfusion of whole blood, platelet-rich thrombi were observed over the surface of the microslide. […] As illustrated graphically in FIG. 2, pretreatment of whole blood with 50, 100, and 200 μM TGX-40 led to a decrease of 25, 53, and 80% in thrombus formation relative to control.

[4] = system: rats producing regular cyclic flow reductions (CFRs); assay: Animal model of internal carotid artery occlusion (Folts model, cyclic flow reductions); assay type: in vivo; conditions: rat
Description: The inhibitory effect of TGX-40 was examined in the well established animal model of arterial thrombosis of Folts et al., 1982, Circulation 65:248-255. This model is used to investigate the effects of antithrombotic drugs on clotting time in vivo in response to a crush injury followed by arterial stenosis.
The carotid artery of an anesthetized rat is dissected out, and an electromagnetic flow probe is placed around the artery to measure blood flow. Proximal to the flow probe, the artery is clamped with surgical forceps covered with silicone tubing to cause intimal and medial damage to the vessel wall. A ligature, or plastic cylinder of appropriate inside diameter is laced around the artery to produce a 70% reduction in arterial diameter.
Platelets aggregate in the area of the stenosed and damaged arterial vessel, gradually forming an occlusive platelet thrombus, seen as a decrease in blood flow. As the thrombus forms, blood pressure increases, causing the thrombus to fragment and embolize distal to the stenosed site. […] This causes a sudden restoration of blood flow. Platelets again aggregate in the area of the stenosed and damaged arterial vessel, repeating the thrombus-embolization pattern. […]
TGX-40 was administered at doses of 1.6 mg/kg and 3.2 mg/kg via the jugular vein and the stabilization of blood flow was recorded.

PI4K = molecular target: T2, PI4K; assay: In vitro enzyme assay PI4K; assay type: biochemical; conditions: PI4K isolated from platelets; read-out: IC50 against PI4K
T2 construct: PI4K was isolated from platelets in a similar manner using a PI4K specific antibody
Description: In vitro enzyme assays were conducted as a primary screen to determine drug candidate isoform affinity and specificity. The affinity of two leading compounds of the quinolone series (TGX84 and TGX155) for a closely related enzyme family, PI4K, was also determined to maximise compound specificity and therefore minimise potential adverse biochemical events.
The α and β isoforms of the PI3K were immunoprecipitated from a platelet lysate using an antibody that recognised the p85 regulatory subunit common to both forms of the enzyme. The γ isoform was produced as a recombinant protein in the Thrombogenix laboratories. PI4K was isolated from platelets in a similar manner using a PI4K specific antibody. Standard phosphorylation assays using phosphatidylinositol and ^32P were used to measure the enzyme activity in the immunoprecipates in the presence or absence of an inhibitor. Enzyme activity was determined over a range of inhibitor concentrations to establish an IC50 value.

tyrosine kinase EGF = tyrosine kinase EGF (Homo sapiens, UniProt P00533); assay: Enzyme screening assay: tyrosine kinase EGF; assay type: biochemical
Sequence of tyrosine kinase EGF (P00533 25-1210): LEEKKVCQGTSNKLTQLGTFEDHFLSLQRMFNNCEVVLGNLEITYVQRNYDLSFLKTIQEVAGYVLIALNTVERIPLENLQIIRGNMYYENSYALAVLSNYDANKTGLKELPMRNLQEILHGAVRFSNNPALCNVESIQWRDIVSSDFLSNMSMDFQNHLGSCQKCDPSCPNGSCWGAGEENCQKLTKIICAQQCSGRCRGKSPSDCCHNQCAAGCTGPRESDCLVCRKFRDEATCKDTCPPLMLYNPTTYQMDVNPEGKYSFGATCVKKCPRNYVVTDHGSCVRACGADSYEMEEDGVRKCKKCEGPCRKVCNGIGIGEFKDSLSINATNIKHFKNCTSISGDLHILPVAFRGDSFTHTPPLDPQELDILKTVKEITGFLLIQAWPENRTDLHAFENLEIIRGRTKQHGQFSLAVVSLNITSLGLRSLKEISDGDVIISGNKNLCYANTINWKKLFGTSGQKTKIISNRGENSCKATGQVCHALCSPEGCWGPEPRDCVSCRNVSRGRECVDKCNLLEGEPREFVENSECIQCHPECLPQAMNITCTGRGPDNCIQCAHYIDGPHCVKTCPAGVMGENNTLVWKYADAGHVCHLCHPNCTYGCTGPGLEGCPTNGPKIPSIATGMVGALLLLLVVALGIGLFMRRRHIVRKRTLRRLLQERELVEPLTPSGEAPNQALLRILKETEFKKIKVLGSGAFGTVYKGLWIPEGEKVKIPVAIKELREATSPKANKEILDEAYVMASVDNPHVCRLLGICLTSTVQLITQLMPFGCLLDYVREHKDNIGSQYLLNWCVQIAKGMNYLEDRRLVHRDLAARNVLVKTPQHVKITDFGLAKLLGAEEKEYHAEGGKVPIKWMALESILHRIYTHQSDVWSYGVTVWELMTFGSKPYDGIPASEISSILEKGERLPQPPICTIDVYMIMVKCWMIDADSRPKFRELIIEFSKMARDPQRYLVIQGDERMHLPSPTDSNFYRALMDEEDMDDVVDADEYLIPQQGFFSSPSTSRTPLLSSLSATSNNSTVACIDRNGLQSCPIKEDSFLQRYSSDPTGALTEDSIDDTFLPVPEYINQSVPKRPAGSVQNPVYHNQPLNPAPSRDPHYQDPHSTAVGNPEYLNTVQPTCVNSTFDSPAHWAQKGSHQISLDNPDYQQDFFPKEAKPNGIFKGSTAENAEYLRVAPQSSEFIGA
Description: (§3) The two leading compounds of the quinolone series, TGX155 and TGX84 were screened for activity against seven enzymes related to PI3K in function or substrate specificity, viz: ATPase, PDE4, tyrosine kinases EGF and fyn, protein kinases A and C, and tyrosine phosphatase.

tyrosine kinase fyn = tyrosine kinase fyn (Homo sapiens, UniProt P06241); assay: Enzyme screening assay: tyrosine kinase fyn; assay type: biochemical
Sequence of tyrosine kinase fyn (P06241 whole entry): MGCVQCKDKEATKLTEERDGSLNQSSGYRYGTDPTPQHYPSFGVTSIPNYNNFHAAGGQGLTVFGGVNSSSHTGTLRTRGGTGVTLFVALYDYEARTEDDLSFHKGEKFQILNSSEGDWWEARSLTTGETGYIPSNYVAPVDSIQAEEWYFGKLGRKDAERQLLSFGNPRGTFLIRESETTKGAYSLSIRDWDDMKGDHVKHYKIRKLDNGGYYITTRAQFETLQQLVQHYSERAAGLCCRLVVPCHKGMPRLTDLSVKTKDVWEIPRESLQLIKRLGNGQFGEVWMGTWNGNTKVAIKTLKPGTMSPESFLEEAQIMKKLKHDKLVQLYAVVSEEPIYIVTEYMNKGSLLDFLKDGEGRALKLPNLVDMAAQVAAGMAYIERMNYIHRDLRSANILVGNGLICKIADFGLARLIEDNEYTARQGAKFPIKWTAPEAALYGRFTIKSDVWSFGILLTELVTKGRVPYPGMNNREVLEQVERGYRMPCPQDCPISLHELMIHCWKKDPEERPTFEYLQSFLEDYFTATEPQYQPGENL
Description: as §3

[5] = system: platelet thrombus formation; assay: Platelet thrombus formation under flow, citrated whole blood, vWf-coated microcapillary tubes (LDH); assay type: cell-based; conditions: 50, 100, 200 μM, 600 s^−1
Description: Citrated whole blood was pretreated with 50, 100 or 200 μM TGX-84, or control buffer (0.1% DMSO) for 10 minutes at 37° C. Blood was perfused through von Willebrand factor-(vWf) coated microcapillary tubes for 2 minutes at 600 s^−1. Non-adherent cells were removed by perfusion of buffer for 2 minutes at 600 s^−1 and any adherent erythrocytes lysed through treatment with 1% ammonium oxalate. Adherent platelets were then lysed through addition of 1% Triton X-100 and lactate dehydrogenase (LDH) levels (U/L) analysed by spectrophotometry.

Row | IC50 [1] [nM] | IC50 (PI3K α/β isoforms) [nM] | IC50 (PI3K γ) [nM] | IC50 (PI4K) [nM] | IC50 (tyrosine kinase EGF) [nM] | IC50 (tyrosine kinase fyn) [nM] | SMILES | % Cells remaining [2] [%] | further results
1 | 200 | – | – | – | – | – | Cc1cc(N[C@H](C)c2ccccc2)c2nc(N3CCOCC3)cc(=O)n2c1 [TGX-123] | 10 | –
2 | 50 | 50 | 5000 to 10000 | – | – | – | Cc1cc(NCc2ccccc2Cl)c2nc(N3CCOCC3)cc(=O)n2c1 [TGX-167] | 1.5 | –

More lines, now with the values behind:

Row | SMILES | IC50 [1] [nM] | IC50 (PI3K α/β isoforms) [nM] | IC50 (PI3K γ) [nM] | IC50 (PI4K) [nM] | IC50 (tyrosine kinase EGF) [nM] | IC50 (tyrosine kinase fyn) [nM] | % Cells remaining [2] [%] | further results
3 | O=c1cc(N2CCOCC2)nc2c(Cc3ccccc3)cccn12 [TGX-40] | ~1500 | – | – | – | – | – | 75 | decrease in platelet adhesion (platelets; 10 μM): 51%; decrease in platelet adhesion (platelets; 25 μM): 67%; decrease in platelet adhesion (platelets; 50 μM): 86%; decrease in thrombus formation relative to control ([3]; 50 μM): 25%; decrease in thrombus formation relative to control ([3]; 100 μM): 53%; decrease in thrombus formation relative to control ([3]; 200 μM): 80%; treated animals returned to baseline within 10 minutes ([4]; 1.6 mg/kg via the jugular vein): 90%; treated animals returned to baseline within 10 minutes ([4]; 3.2 mg/kg via the jugular vein): 90%
4 | Cc1cc(F)ccc1Oc1cccc2c(=O)cc(N3CCOCC3)[nH]c12 [TGX-155, 8-(4′-Fluoro-2′-methylphenoxy)-2-morpholino-4-quinolone] | 20 | 20 | 5000 | 100000 | > 100000 | > 100000 | – | –
5 | Cc1cc(CNc2ccc(F)cc2C)c2nc(N3CCOCC3)cc(=O)n2c1 [TGX-186] | – | – | – | – | – | – | 1.5 | –
6 | O=c1cc(N2CCOCC2)[nH]c2c(Oc3ccccc3)cccc12 [TGX-84, 2-Morpholino-8-phenoxy-4-quinolone] | 100 | 100 | 5000 | 100000 | > 100000 | > 100000 | – | thrombosis formation relative to control [5]: decrease in thrombosis formation relative to control
